The record followed here is patent publication US20240002397A1, “3-AMINO PYRROLIDINE AND PIPERIDINE MACROCYCLIC OREXIN RECEPTOR AGONISTS” (Merck Sharp & Dohme LLC, priority 2020, published 2024).

Each structure is given as a SMILES string.

One test deals with T1, human OX2R (Homo sapiens, UniProt O43614).
T1 sequence (O43614 1-444): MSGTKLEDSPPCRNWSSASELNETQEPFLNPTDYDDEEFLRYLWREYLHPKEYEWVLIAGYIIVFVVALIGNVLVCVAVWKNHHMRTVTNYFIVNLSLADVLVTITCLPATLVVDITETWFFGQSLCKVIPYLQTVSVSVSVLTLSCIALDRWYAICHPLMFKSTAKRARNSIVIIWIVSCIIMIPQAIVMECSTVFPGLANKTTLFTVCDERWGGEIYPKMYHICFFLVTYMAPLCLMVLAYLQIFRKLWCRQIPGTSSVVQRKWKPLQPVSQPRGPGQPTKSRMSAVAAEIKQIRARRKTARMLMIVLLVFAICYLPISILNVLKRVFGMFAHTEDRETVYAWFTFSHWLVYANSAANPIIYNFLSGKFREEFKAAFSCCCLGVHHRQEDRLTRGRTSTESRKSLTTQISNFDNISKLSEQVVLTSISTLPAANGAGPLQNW
The test can be described thus: IPOne (IP-1) orexin receptor agonist assay in CHO cells expressing human OX2R. Particulars: CHO, hOX2R IP-One; percentage of mean max effect of a reference compound at 1 uM with 100% activity.
The compound `CN(C)S(=O)(=O)N[C@H]1CCN2C(=O)OCCCOc3cccc(c3)[C@H]3CC[C@H](CC3)OC[C@@H]12` [Example 16, N′-((2^1S,2^4S, 5^2R,5^3S)-6-oxo-3,7,11-trioxa-5(2,1)-pyrrolidina-1(1,3)-benzena-2(1,4)-cyclohexana-cyclounde-caphane-5^3-yl)-N,N-dimethyl-sulfamide] came in with an Emax of 99.1%. In turn, `C[C@@H]1C[C@H](NS(C)(=O)=O)C2COC3CCC(CC3)c3cccc(c3)OCCOC(=O)N21` (stereo partly drawn) [Example 17, N-((2^1S,2^4S, 5^2R,5^3S,5^5R)-5^5-methyl-6-oxo-3,7,10-trioxa-5(2,1)-pyrrolidina-1(1,3)-benzena-2(1,4)-cyclohexana-cyclodecaphane-5^3-yl) methanesulfonamide] came in with an Emax of 100%. Take `C[C@@H]1C[C@H](NS(C)(=O)=O)C2COC3CCC(CC3)c3cccc(c3)OCCCOC(=O)N21` (stereo partly drawn) [Example 18, N-((2^1S,2^4S, 5^2R,5^3S,5^5R)-5^5-methyl-6-oxo-3,7,11-trioxa-5(2,1)-pyrrolidina-1(1,3)-benzena-2(1,4)-cyclohexana-cyclounde-caphane-5^3-yl) methanesulfonamide]: the Emax amounted to 100%.

Regarding `C[C@@H]1C[C@H](NS(C)(=O)=O)C2COC3CCC(CC3)c3cccc(c3)OCCCCC(=O)N21` (stereo partly drawn) [Example 19, N-((2^1S,2^4S, 5^2R,5^3S,5^5R)-5^5-methyl-6-oxo-3,11-dioxa-5(2,1)-pyrrolidina-1(1,3)-benzena-2(1,4)-cyclohexana-cyclounde-caphane-5^3-yl) methanesulfonamide], the Emax amounted to 101%.

Turning to `C[C@@H]1C[C@H](NS(C)(=O)=O)C2COC3CCC(CC3)c3cccc(c3)OCCCC(=O)N21` (stereo partly drawn) [Example 20, N-((2^1S,2^4S, 5^2R,5^3S,5^5R)-5^5-methyl-6-oxo-3,10-dioxa-5(2,1)-pyrrolidina-1(1,3)-benzena-2(1,4)-cyclohexana-cyclodecaphane-5^3-yl) methanesulfonamide], the Emax amounted to 101%.

As for `C[C@@H]1C[C@H](NS(=O)(=O)N(C)C)[C@@H]2COC3CCC(CC3)c3cccc(c3)CCCCOC(=O)N12` [Example 22, N′-((2^1S,2^4S,5^2R,5^3S,5^5R)-5^5-methyl-6-oxo-3,7-dioxa-5(2,1)-pyrrolidina-1(1,3)-benzena-2(1,4)-cyclohexanacycloundecaphane-5^3-yl)-N,N-dimethysulfamide], the Emax came out at 102%. The compound `CN(C)S(=O)(=O)N[C@H]1CCN2C(=O)CCCCNc3cccc(c3)[C@H]3CC[C@H](CC3)OC[C@@H]12` [Example 23, N′-((2^1S,2^4S,5^2R,5^3S)-6-oxo-3-oxa-11-aza-5(2,1)-pyrrolidina-1(1,3)-benzena-2(1,4)-cyclohexanacycloundecaphane-5^3-yl)-N,N-dimethyl-sulfamide] came in with a maximum response (Emax) of 102%. The same measure, in the same setting: then `CS(=O)(=O)N[C@H]1CCCN2C(=O)CCCCOc3ccccc3[C@H]3CC[C@H](CC3)OC[C@@H]12` [Example 24, N-((2^1S,2^4S,5^2R,5^3S)-6-oxo-3,1′-dioxa-5(2,1)-piperidina-1(1,2)-benzena-2(1,4)-cyclohexanacycloundecaphane-5^3-yl)methanesulfonamide], with 99.2%; and `CN(C)S(=O)(=O)N[C@H]1CCCN2C(=O)OCCCOc3cccc(c3)C3CCC(CC3)OC[C@@H]12` [Example 25, N′-((2^1S,2^4S,5^2R,5^3S)-6-oxo-3,7,11-trioxa-5(2,1)-piperidina-1(1,3)-benzena-2(1,4)-cyclohexanacycloundecaphane-5^3-yl)-N,N-dimethyl-sulfamide], with 101%; and `CN(C)S(=O)(=O)N[C@H]1CCCN2C(=O)OCCCCOc3cccc(c3)C3CCC(CC3)OC[C@@H]12` [Example 26, N′-((2^1S,2^4S,5^2R,5^3S)-6-oxo-3,7,12-trioxa-5(2,1)-piperidina-1(1,3)-benzena-2(1,4)-cyclohexanacyclododecaphane-5^3-yl)-N,N-dimethy-sulfamide], with 94.1%.

With `CN(C)S(=O)(=O)N[C@@H]1CCCN2C(=O)OCCCCOc3cccc(c3)C3CCC(CC3)OC[C@H]12` [Example 27, N′-((2^1R,2^4R,5^2S,5^3R)-6-oxo-3,7,12-trioxa-5(2,1)-piperidina-1(1,3)-benzena-2(1,4)-cyclohexanacyclododecaphane-5^3-yl)-N,N-dimethyl-sulfamide], the Emax stood at 4.1%. As to `CS(=O)(=O)N[C@H]1CCCN2C(=O)/C=C/CCOc3cccc(c3)C3CCC(CC3)OC[C@@H]12` [Example 28, N-((2^1S,2^4S,5^2R,5^3S,E)-6-oxo-3,11-dioxa-5(2,1)-piperidina-1(1,3)-benzena-2(1,4)-cyclohexanacycloundecaphan-7-en-5^3-yl)methanesulfonamide], the Emax stood at 102%. Still for that read-out and setting: next, `CS(=O)(=O)N[C@H]1CCCN2C(=O)CCCCOc3cccc(c3)C3CCC(CC3)OC[C@@H]12` [Example 29, N-((2^1S,2^4S,5^2R,5^3S)-6-oxo-3,11-dioxa-5(2,1)-piperidina-1(1,3)-benzena-2(1,4)-cyclohexanacycloundecaphane-5^3-yl)methanesulfonamide]: 101%. On the same count and under the same terms, then `C[C@@H]1C[C@H](NS(C)(=O)=O)C2CO[C@H]3CC=C(CC3)c3cc(F)cc(c3)OCCCOC(=O)N21` (stereo partly drawn) [Example 41], with 102%; and `C[C@@H]1C[C@H](NS(C)(=O)=O)C2COC3CCC(CC3)c3cc(F)cc(c3)OCCCOC(=O)N21` (stereo partly drawn) [Example 42, N-((2^1S,2^4S, 5^2R,5^3S,5^5R)-1^5-fluoro-5^5-methyl-6-oxo-3,7,11-trioxa-5(2,1)-pyrrolidina-1(1,3)-benzena-2(1,4)-cyclohexana-cyclounde-caphane-5^3-yl)methane-sulfonamide], with 102%.

With `C[C@@H]1C[C@H](NS(C)(=O)=O)C2CO[C@H]3CC=C(CC3)c3cc(F)cc(c3)OCCCCC(=O)N21` (stereo partly drawn) [Example 43, N-((2^1S,2^4S, 5^2R,5^3S,5^5R)-1^5-fluoro-5^5-methyl-6-oxo-3,11-dioxa-5(2,1)-pyrrolidina-1(1,3)-benzena-2(1,4)-cyclohexana-cyclounde-caphan-2^1-en-5^3-yl)methane-sulfonamide], the maximal effect (Emax) was 102%. Same read-out and setting: then `C[C@@H]1C[C@H](NS(C)(=O)=O)C2COC3CCC(CC3)c3cc(F)cc(c3)OCCCCC(=O)N21` (stereo partly drawn) [Example 44, N-((2^1S,2^4S, 5^2R,5^3S,5^5R)-1^5-fluoro-5^5-methyl-6-oxo-3,11-dioxa-5(2,1)-pyrrolidina-1(1,3)-benzena-2(1,4)-cyclohexana-cyclounde-caphane-5^3-yl)methane-sulfonamide], with 102%; and `C[C@@H]1C[C@H](NS(C)(=O)=O)C2COC3CCC(CC3)c3ccc(C#N)c(c3)OCCCOC(=O)N21` (stereo partly drawn) [Example 45, N-((2^1S,2^4S, 5^2R,5^3S,5^5R)-1^4-cyano-5^5-methyl-6-oxo-3,7,11-trioxa-5(2,1)-pyrrolidina-1(1,3)-benzena-2(1,4)-cyclohexana-cyclounde-caphane-5^3-yl)methane-sulfonamide], with 103%; and `C[C@@H]1C[C@H](NS(C)(=O)=O)C2CO[C@H]3CC=C(CC3)c3cccc(c3F)OCCCOC(=O)N21` (stereo partly drawn) [Example 46, N-((2^1S,2^4S, 5^2R,5^3S,5^5R)-1^2-fluoro-5^5-methyl-6-oxo-3,7,11-trioxa-5(2,1)-pyrrolidina-1(1,3)-benzena-2(1,4)-cyclohexana-cyclounde-caphan-2^1-en-5^3-yl)methane-sulfonamide], with 102%.

On to `C[C@@H]1C[C@H](NS(C)(=O)=O)C2COC3CCC(CC3)c3cccc(c3F)OCCCOC(=O)N21` (stereo partly drawn) [Example 47, N-((2^1S,2^4S, 5^2R,5^3S,5^5R)-1^2-fluoro-5^5-methyl-6-oxo-3,7,11-trioxa-5(2,1)-pyrrolidina-1(1,3)-benzena-2(1,4)-cyclohexana-cyclounde-caphane-5^3-yl)methane-sulfonamide], for which the Emax came to 102%. Still for that read-out and setting: then `C[C@@H]1C[C@H](NS(C)(=O)=O)C2COC3CCC(CC3)c3cc(F)cc(c3F)OCCCOC(=O)N21` (stereo partly drawn) [Example 48, N-((2^1S,2^4S, 5^2R,5^3S,5^5R)-1^2,1^5-difluoro-5^5-methyl-6-oxo-3,7,11-trioxa-5(2,1)-pyrrolidina-1(1,3)-benzena-2(1,4)-cyclohexana-cyclounde-caphane-5^3-yl)methane-sulfonamide], with 101%; and `C[C@@H]1C[C@H](NS(C)(=O)=O)C2COC3CCC(CC3)c3cc(cc(C(F)(F)F)c3)OCCCOC(=O)N21` (stereo partly drawn) [Example 49, N-((2^1S,2^4S, 5^2R,5^3S,5^5R)-5^5-methyl-6-oxo-1^5-(trifluoro-methyl)-3,7,11-trioxa-5(2,1)-pyrrolidina-1(1,3)-benzena-2(1,4)-cyclohexana-cyclounde-caphane-5^3-yl)methane-sulfonamide], with 101%.

The test is the same for the next values; noted with them: hOX2R IP-One; percentage of mean max effect of a reference compound at 1 uM with 100% activity.
In the case of `CN(C)S(=O)(=O)NC1CCN2C(=O)OCCCCc3cccc(c3)C3CCC(CC3)OCC12` (stereo not drawn) [Example 21, N′-((2^1S,2^4S,5^2R,5^3S)-6-oxo-3,7-dioxa-5(2,1)-pyrrolidina-1(1,3)-benzena-2(1,4)-cyclohexanacycloundecaphane-5^3-yl)-N,N-dimethyl-sulfamide], the “Emax (%)” value is 100.5%. Still for that read-out and setting: then `CS(=O)(=O)NC1CCCN2C(=O)CCCOc3cccc(c3)C3CCC(C3)OCC12` (stereo not drawn) [Example 33, N-((2^1S,2^3R,5^2R,5^3S)-6-oxo-3,10-dioxa-5(2,1)-piperidina-1(1,3)-benzena-2(1,3)-cyclopentanacyclodecaphane-5^3-yl)methanesulfonamide], with −3.9%.
